Among the data in patent US20180141965A1, “AUTOTAXIN INHIBITORS AND USES THEREOF” (NATIONAL AND KAPODISTRIAN UNIVERSITY OF ATHENS, priority 2015, published 2018) are IC50 values, retold here.

Where two headings read alike, the source gives them in different places.

For this assay, the target named is T1, recombinant ATX (mouse ATX-β) (Mus musculus, UniProt Q9R1E6).
T1 construct: purchased Sino Biological
The assay is described as follows: Inhibition of ATX, Amplex Red PLD assay kit. As to conditions: 2 nM recombinant ATX, mean of two independent experiments. Format: biochemical. The procedure:
The in vitro activity of the synthetic inhibitors was studied using the Amplex™ Red PLD assay kit (Molecular Probes, Interchim, Montlucon, France). Inhibitors were dissolved in DMSO (stock solution 3 mM) and appropriate dilutions were made in DMSO. […] The IC50 values were determined using the mean values obtained from two independent experiments. The IC50 values were determined graphically using the sigmoid dose-response fitting method (PrismH software) by the equation f=y0+a/(1+exp(−(x−x0)/b)) given by SigmaPlot 11.0.

Setting [1] is: thioamides/phosphonates/phosphinates, substrate 50 μM LPC 16:0, read-out: IC50 (μM) 16:0 LPC.
[2] abbreviates: thioamides/phosphonates/phosphinates, substrate 50 μM LPC 18:1, read-out: IC50 (μM) 18:1 LPC.
The mark [3] stands for this setting: hydroxamates, substrate 50 μM LPC 16:0, read-out: IC50 (μM) 16:0 LPC.
[4] abbreviates: hydroxamates, substrate 50 μM LPC 18:0, read-out: IC50 (μM) 18:0 LPC.
[5] abbreviates: thioamides/phosphonates/phosphinates, substrate 50 μM LPC 18:0, read-out: IC50 (μM) 18:0 LPC.

As for `CCCCCCCCCCCCCC(=S)NCCCCP(=O)(O)OCC` [GK378], the IC50 (in general, the concentration that inhibits the measured activity by half) is, setting by setting: under setting [1], 0.12 µM; under setting [2], 0.05 µM.

On to `O=C(Cc1ccc(NC(=O)CCCCCCC(=O)Nc2ccccc2)cc1)NO` [GK346], for which, under setting [3], the concentration for half-maximal inhibition (IC50) turned out to be 2 µM.

As to `COC(=O)[C@@H](CCC(=O)NO)NC(=O)CCCCC(=O)Nc1ccc(OC)cc1` [GK382], the IC50 under setting [3] stood at 4 µM.

In the case of `COC(=O)[C@@H](CCC(=O)NO)NC(=O)CCCCC(=O)Nc1ccccc1` [GK337], the IC50 was determined as 0.4 µM under setting [3] and 5 µM under setting [4].

For the compound `COC(=O)[C@@H](CCCC(=O)NO)NC(=O)CCCCC(=O)Nc1ccccc1` [GK400], the IC50 under setting [3] is 0.05 µM.

Turning to `COc1ccc(C(=O)NCCCCC(=O)Nc2ccc(CC(=O)NO)cc2)cc1` [GK381], the IC50 under setting [3] was found to be 1 µM.

`O=C(Cc1ccc(NC(=O)CCCCNC(=O)c2ccccc2)cc1)NO` [GK340]: the half-inhibitory concentration (IC50) turned out to be 1 µM under setting [3] and 0.2 µM under setting [4].

Turning to `CCCC[C@@H](CCCC(=O)NO)NC(=S)NCCCC(=O)Nc1ccccc1` [GK471], under setting [3], the concentration for half-maximal inhibition (IC50) was 0.8 µM.

For `CCCCCCCCCCCCCC(=S)NCCCCC(=S)NCC` [GK377], the IC50 is, setting by setting: under setting [1], 0.198 µM; under setting [2], 0.098 µM.

Consider `Nc1ccccc1NC(=O)Cc1ccc(NC(=O)CCCCC(=O)Nc2ccccc2)cc1` [GK335], for which the IC50 under setting [3] came out at 0.6 µM.

Regarding `CCCCCCCCCCCCCC(=S)NCCCC[PH](=O)O` [GK325], the half-maximal inhibitory concentration (IC50) runs as follows: under setting [1], 0.5 µM; under setting [5], 1 µM.

`CCCCCCCCc1ccc(OCC(=O)Nc2ccc(CC(=O)NO)cc2)cc1` [GK344]: the IC50 under setting [3] is 1 µM and the IC50 under setting [4] came to 0.3 µM.

For `CCCC[C@@H](CCCC(=O)NO)NC(=O)CCCCC(=O)Nc1ccccc1` [GK442], the concentration for half-maximal inhibition (IC50) under setting [3] stood at 0.06 µM.

Consider `O=C(Cc1ccc(NC(=O)CCCCCCc2ccccc2)cc1)NO` [GK333], for which the IC50 came to 0.7 µM under setting [3] and 2 µM under setting [4].

On to `CCCCCCCCCCCCCC(=O)Nc1ccc(CC(=O)NO)cc1` [GK332], for which the concentration for half-maximal inhibition (IC50) was 1 µM under setting [3] and 0.2 µM under setting [4].

Take `CCCCCCCCCCCCCC(=S)NCCCC[PH](=O)O` [GK312]: the IC50 runs as follows: under setting [1], 3 µM; under setting [5], 0.7 µM.

Consider `CCCCOc1ccc(CCCCC(=O)Nc2ccc(CC(=O)NO)cc2)cc1` [GK341], for which the IC50 under setting [3] came to 4 µM.

For the compound `CCCCCCCCc1ccc(CCC(=O)Nc2ccc(CC(=O)NO)cc2)cc1` [GK345], the IC50 under setting [3] stood at 5 µM.

In the case of `CCCCCCCCCCCCCC(=O)Nc1ccc(CC[PH](=O)O)cc1` [GK327], the 50% inhibitory concentration (IC50) is 0.4 µM under setting [1] and 4 µM under setting [5].

With `CCCCCCCCCCCCNC(=S)NCCCCC(=S)NCC` [GK446], under setting [1], the concentration for half-maximal inhibition (IC50) is 0.06 µM.

In the case of `O=C(Cc1ccc(NC(=O)CCCCC(=O)Nc2ccccc2)cc1)NO` [GK285], the IC50 under setting [3] turned out to be 1.2 µM.
